# In ChEMBL document CHEMBL5050844 (2019):
# Legend:
# [1] = Induction of anti-CD3/CD28 antibodies-stimulated human CD8+ T cell activation at 1.11 uM assessed fold increase in CD69 expression measured by flow cytometry analysis; assay type: functional, T cell line
# [2] = Induction of anti-CD3/CD28 antibodies-stimulated human T cell activation at 4 uM assessed fold increase in IL-2 secretion measured by ELISA assay; assay type: functional, T cell line
# [3] = Induction of anti-CD3/CD28 antibodies-stimulated human T cell activation at 0.3 uM assessed fold increase in IL-2 secretion measured by ELISA assay; assay type: functional, T cell line
# [4] = Induction of anti-CD3/CD28 antibodies-stimulated human anergic T cell activation at 0.37 uM assessed fold increase in IFN-gamma secretion measured by ELISA assay; assay type: functional, T cell line
# [5] = Induction of anti-CD3/CD28 antibodies-stimulated human CD4+ T cell activation at 1.11 uM assessed fold increase in cell proliferation measured by flow cytometry analysis; assay type: functional, T cell line
# [6] = Induction of anti-CD3/CD28 antibodies-stimulated human CD4+ T cell activation at 1.11 uM assessed fold increase in CD69 expression measured by flow cytometry analysis; assay type: functional, T cell line
# [7] = Induction of anti-CD3/CD28 antibodies-stimulated human anergic T cell activation at 10 uM assessed fold increase in IFN-gamma secretion measured by ELISA assay; assay type: functional, T cell line
# [8] = test system: B cell; test: Induction of anti-IgM-stimulated human CD20+ B cell activation at 10 to 1000 uM assessed as increase in CD69 expression measured as mean fluorescence intensity AUC by flow cytometry analysis; assay type: functional, cell-based; details: dose 10-1000 µM
# [9] = Induction of anti-CD3/CD28 antibodies-stimulated human T cell activation at 1 uM assessed fold increase in CD25 expression measured by ELISA assay; assay type: functional, T cell line
# [10] = Induction of anti-CD3 antibodies-stimulated human CD4+ T cell activation at 1.11 uM assessed fold increase in CD69 expression measured by flow cytometry analysis; assay type: functional, T cell line; also: reference of the scale not given here
# [11] = Induction of anti-CD3/CD28 antibodies-stimulated human T cell activation at 1.11 uM assessed fold increase in IFN-gamma secretion measured by ELISA assay; assay type: functional, T cell line
# [12] = Induction of anti-CD3 antibodies-stimulated human CD8+ T cell activation at 10 uM assessed fold increase in cell proliferation measured by flow cytometry analysis; assay type: functional, T cell line; also: reference of the scale not given here
# [13] = Induction of activation of human CD56+ CD3- NK cells co-cultured with human K562 cells in 1:1 ratio and assessed as increase in TNF-alpha secretion at 2.5 uM measured by ELISA assay; assay type: functional, Natural killer cell
# [14] = Induction of anti-CD3 antibodies-stimulated human CD8+ T cell activation at 1.11 uM assessed fold increase in cell proliferation measured by flow cytometry analysis; assay type: functional, T cell line; also: reference of the scale not given here
# [15] = Induction of anti-CD3 antibodies-stimulated human exhausted CD8+ T cell activation assessed fold increase in CTLA4 expression measured by flow cytometry analysis; assay type: functional, T cell line; also: reference of the scale not given here
# [16] = Induction of anti-CD3 antibodies-stimulated human CD8+ T cell activation at 1.11 uM assessed fold increase in CD69 expression measured by flow cytometry analysis; assay type: functional, T cell line; also: reference of the scale not given here
# [17] = Induction of anti-CD3/CD28 antibodies-stimulated human T cell activation at 10 uM assessed fold increase in TNF-alpha secretion measured by ELISA assay; assay type: functional, T cell line
# [18] = Induction of anti-CD3 antibodies-stimulated human T cell activation at 1 uM assessed fold increase in CD25 expression measured by ELISA assay; assay type: functional, T cell line; also: reference of the scale not given here
# [19] = Induction of activation of human CD56+ CD3- NK cells co-cultured with human K562 cells in 1:1 ratio and assessed as increase in IFN-gamma secretion at 2.5 uM measured by ELISA assay; assay type: functional, Natural killer cell
# [20] = Induction of anti-CD3 antibodies-stimulated human T cell activation at 10 uM assessed fold increase in IFN-gamma secretion measured by ELISA assay; assay type: functional, T cell line; also: reference of the scale not given here
# [21] = Induction of anti-CD3/CD28 antibodies-stimulated human T cell activation at 10 uM assessed fold increase in IFN-gamma secretion measured by ELISA assay; assay type: functional, T cell line
# [22] = Induction of anti-CD3/CD28 antibodies-stimulated human CD4+ T cell activation at 10 uM assessed fold increase in CD69 expression measured by flow cytometry analysis; assay type: functional, T cell line
# [23] = Induction of allogenic human T cell activation at 10 uM assessed fold increase in cell proliferation; assay type: functional, T cell line
# [24] = Induction of anti-CD3 antibodies-stimulated human T cell activation at 8 uM assessed fold increase in CD25 expression measured by ELISA assay; assay type: functional, T cell line; also: reference of the scale not given here
# [25] = Induction of activation of human CD56+ CD3- NK cells co-cultured with human K562 cells in 1:1 ratio and assessed as increase in TNF-alpha secretion at 10 uM measured by ELISA assay; assay type: functional, Natural killer cell
# [26] = Induction of anti-CD3/CD28 antibodies-stimulated human T cell activation at 1.11 uM assessed fold increase in TNF-alpha secretion measured by ELISA assay; assay type: functional, T cell line
# [27] = Induction of anti-CD3 antibodies-stimulated human exhausted T cell activation assessed fold increase in IL-2 secretion measured by ELISA assay; assay type: functional, T cell line; also: reference of the scale not given here
# [28] = Induction of anti-CD3/CD28 antibodies-stimulated human CD4+ T cell activation at 10 uM assessed fold increase in cell proliferation measured by flow cytometry analysis; assay type: functional, T cell line
# [29] = Induction of anti-CD3 antibodies-stimulated human T cell activation at 1.11 uM assessed fold increase in TNF-alpha secretion measured by ELISA assay; assay type: functional, T cell line; also: reference of the scale not given here
# [30] = Induction of anti-CD3 antibodies-stimulated human T cell activation at 1.11 uM assessed fold increase in IFN-gamma secretion measured by ELISA assay; assay type: functional, T cell line; also: reference of the scale not given here
# [31] = Induction of activation of human CD56+ CD3- NK cells co-cultured with human K562 cells in 1:1 ratio and assessed as increase in IFN-gamma secretion at 10 uM measured by ELISA assay; assay type: functional, Natural killer cell
# [32] = Induction of anti-CD3 antibodies-stimulated human exhausted T cell activation assessed fold increase in GM-CSF secretion measured by ELISA assay; assay type: functional, T cell line; also: reference of the scale not given here
# [33] = Induction of anti-CD3/CD28 antibodies-stimulated human T cell activation at 10 uM assessed fold increase in GM-CSF secretion measured by ELISA assay; assay type: functional, T cell line
# [34] = Induction of anti-CD3 antibodies-stimulated human CD4+ T cell activation at 10 uM assessed fold increase in CD69 expression measured by flow cytometry analysis; assay type: functional, T cell line; also: reference of the scale not given here
# [35] = Induction of anti-CD3 antibodies-stimulated human CD8+ T cell activation at 10 uM assessed fold increase in CD69 expression measured by flow cytometry analysis; assay type: functional, T cell line; also: reference of the scale not given here
# [36] = Induction of anti-CD3 antibodies-stimulated human T cell activation at 8 uM assessed fold increase in IL-2 secretion measured by ELISA assay; assay type: functional, T cell line; also: reference of the scale not given here
# [37] = Induction of anti-CD3 antibodies-stimulated human T cell activation at 10 uM assessed fold increase in GM-CSF secretion measured by ELISA assay; assay type: functional, T cell line; also: reference of the scale not given here
# [38] = Induction of anti-CD3/CD28 antibodies-stimulated human T cell activation at 0.3 uM assessed fold increase in CD25 expression measured by ELISA assay; assay type: functional, T cell line
SMILES,fold change (FC) [1],fold change (FC) [2],fold change (FC) [3],fold change (FC) [4],fold change (FC) [5],fold change (FC) [6],fold change (FC) [7],AUC [8],fold change (FC) [9],fold change (FC) [10],fold change (FC) [11],fold change (FC) [12],fold change (FC) [13],fold change (FC) [14],fold change (FC) [15],fold change (FC) [16],fold change (FC) [17],fold change (FC) [18],fold change (FC) [19],fold change (FC) [20],further results
C[C@H](Sc1nncn1C)c1cccc(NC(=O)c2cccc(C(F)(F)F)n2)c1,<=1.2,>=7.5,1.01,<=2.5,<=2,<=1.2,2.51,0.5,1.31,<=1.2,<=2,<=2,1.01,<=2,<=1.4,<=1.2,2.01,0.601,1.01,<=2,fold change (FC) [21]: <=2; fold change (FC) [22]: <=1.2; fold change (FC) [23]: <=2; fold change (FC) [24]: >=1.001; fold change (FC) [25]: 1.01; fold change (FC) [26]: 1.51; fold change (FC) [27]: <=2.5; fold change (FC) [28]: <=2; fold change (FC) [29]: 1.51; fold change (FC) [30]: <=2; fold change (FC) [31]: 2.01; fold change (FC) [32]: 1.41; fold change (FC) [33]: 2.01; fold change (FC) [34]: <=1.2; fold change (FC) [35]: <=1.2; fold change (FC) [36]: >=0.201; fold change (FC) [37]: 2.01; fold change (FC) [38]: 1.31
Cn1cnnc1C(F)(F)[C@](C)(F)c1cccc(N2Cc3c(cc(CN4CC[C@@H](C#N)C4)cc3C(F)(F)F)C2=O)c1,1.201,>=7.5,5,<=2.5,>4,1.201,>4.01,1.01,1.31,1.401,>4,>4,2.01,>4,>1.61,1.201,2.01,0.801,>=5,3.01,fold change (FC) [21]: >4; fold change (FC) [22]: 1.401; fold change (FC) [23]: <=2; fold change (FC) [24]: >=1.001; fold change (FC) [25]: >=5; fold change (FC) [26]: 2.01; fold change (FC) [27]: <=2.5; fold change (FC) [28]: >4; fold change (FC) [29]: <=1.5; fold change (FC) [30]: 2.01; fold change (FC) [31]: >=5; fold change (FC) [32]: >1.61; fold change (FC) [33]: >4; fold change (FC) [34]: >1.601; fold change (FC) [35]: 1.401; fold change (FC) [36]: >=0.201; fold change (FC) [37]: 2.01; fold change (FC) [38]: 1.01
C[C@H](Cc1nncn1C)c1cccc(NC(=O)c2cccc(CCO)n2)c1,<=1.2,2.51,1.01,<=2.5,<=2,<=1.2,2.51,1.01,1.01,<=1.2,<=2,<=2,1.01,<=2,<=1.4,<=1.2,1.51,<=0.6,1.01,<=2,fold change (FC) [21]: >4; fold change (FC) [22]: 1.201; fold change (FC) [23]: <=2; fold change (FC) [24]: 0.801; fold change (FC) [25]: 1.01; fold change (FC) [26]: <=1.5; fold change (FC) [27]: <=2.5; fold change (FC) [28]: 3.01; fold change (FC) [29]: <=1.5; fold change (FC) [30]: <=2; fold change (FC) [31]: 2.01; fold change (FC) [32]: <=1.4; fold change (FC) [33]: 1.51; fold change (FC) [34]: 1.201; fold change (FC) [35]: <=1.2; fold change (FC) [36]: 0.151; fold change (FC) [37]: 1.51; fold change (FC) [38]: 1.01
Cn1cnnc1CC1(c2cccc(N3Cc4c(cc(CN5CC[C@H](C#N)C5)cc4C(F)(F)F)C3=O)c2)COC1,1.201,>=7.5,5,<=2.5,>4,1.201,2.51,1.01,1.31,1.401,3.01,>4,1.01,3.01,>1.61,<=1.2,2.01,>=1.001,1.01,3.01,fold change (FC) [21]: >4; fold change (FC) [22]: 1.401; fold change (FC) [23]: 2.01; fold change (FC) [24]: >=1.001; fold change (FC) [25]: 2.01; fold change (FC) [26]: 2.01; fold change (FC) [27]: <=2.5; fold change (FC) [28]: >4; fold change (FC) [29]: <=1.5; fold change (FC) [30]: <=2; fold change (FC) [31]: 2.01; fold change (FC) [32]: 1.41; fold change (FC) [33]: >4; fold change (FC) [34]: >1.601; fold change (FC) [35]: 1.201; fold change (FC) [36]: >=0.201; fold change (FC) [37]: 2.01; fold change (FC) [38]: 1.31
